This assay has as its system 186277-243-T-J2-PDC spheroids with HUVEC/MSC, viability. Briefly: Anticancer human tumor 186277-243-T-J2-PDC patient-derived colon adenocarcinoma cell line growth inhibition [CLK]. To be noted: for viability, T/C: stronger effect = lower value. Summed up:
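Patient-derived tumor cells grown as complex spheroids with HUVEC endothelial cells and mesenchymal stem cells, treated with drug combinations. Concentrations descend in half-log steps from near clinical Cmax, or from 10 microM if Cmax unknown.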

[1] abbreviates: curve of first compound, second compound 0.0316 µM.
Setting [2] is: curve of first compound, second compound 0.1 µM.
The mark [3] stands for this setting: curve of first compound, second compound 0.316 µM.
[4] abbreviates: curve of first compound, second compound 1 µM.
The mark [5] stands for this setting: curve of first compound, second compound 3.16 µM.
The mark [6] stands for this setting: curve of first compound, second compound 10 µM.
Where [7] appears, read: second compound 0.0316 µM, first compound 0.0316 µM.
Setting [8] is: second compound 0.0316 µM, first compound 0.1 µM.
Setting [9] is: second compound 0.0316 µM, first compound 0.316 µM.
[10] abbreviates: second compound 0.0316 µM, first compound 1 µM.
[11] abbreviates: second compound 0.1 µM, first compound 0.0316 µM.
[12] abbreviates: second compound 0.1 µM, first compound 0.1 µM.
[13] abbreviates: second compound 0.1 µM, first compound 0.316 µM.
The mark [14] stands for this setting: second compound 0.1 µM, first compound 1 µM.
Setting [15] is: second compound 0.316 µM, first compound 0.0316 µM.
Where [16] appears, read: second compound 0.316 µM, first compound 0.1 µM.
The mark [17] stands for this setting: second compound 0.316 µM, first compound 0.316 µM.
The mark [18] stands for this setting: second compound 0.316 µM, first compound 1 µM.
Setting [19] is: second compound 1 µM, first compound 0.0316 µM.
The mark [20] stands for this setting: second compound 1 µM, first compound 0.1 µM.
The mark [21] stands for this setting: second compound 1 µM, first compound 0.316 µM.
Where [22] appears, read: second compound 1 µM, first compound 1 µM.
The mark [23] stands for this setting: second compound 3.16 µM, first compound 0.0316 µM.
Setting [24] is: second compound 3.16 µM, first compound 0.1 µM.
Setting [25] is: second compound 3.16 µM, first compound 0.316 µM.
Setting [26] is: second compound 3.16 µM, first compound 1 µM.
The mark [27] stands for this setting: second compound 10 µM, first compound 0.0316 µM.
[28] abbreviates: second compound 10 µM, first compound 0.1 µM.
The mark [29] stands for this setting: second compound 10 µM, first compound 0.316 µM.
Setting [30] is: second compound 10 µM, first compound 1 µM.
Where [31] appears, read: second compound 0.0316 µM, first compound 3.16 µM.
The mark [32] stands for this setting: second compound 0.0316 µM, first compound 10 µM.
Where [33] appears, read: second compound 0.1 µM, first compound 3.16 µM.
[34] abbreviates: second compound 0.1 µM, first compound 10 µM.
[35] abbreviates: second compound 0.316 µM, first compound 3.16 µM.
Setting [36] is: second compound 0.316 µM, first compound 10 µM.
Where [37] appears, read: second compound 1 µM, first compound 3.16 µM.
The mark [38] stands for this setting: second compound 1 µM, first compound 10 µM.
[39] abbreviates: second compound 3.16 µM, first compound 3.16 µM.
Setting [40] is: second compound 3.16 µM, first compound 10 µM.
Where [41] appears, read: second compound 10 µM, first compound 3.16 µM.
Setting [42] is: second compound 10 µM, first compound 10 µM.

Structures are written as SMILES. Values joined by “and” are separate entries in the source; they are usually repeats but may differ in a detail not shown here. Equal entries are not always repeated. A value given as a limit tells only on which side of the number the result lay.
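Also: compound exposure lasted seven days before readout.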
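For viability, T/C in this document: 100% = DMSO vehicle control wells.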

For orientation: IC50 means the concentration that gives 50% inhibition. In general, viability, T/C refers to the result in the treated group divided by that in the control group, in per cent. For `CCc1c2c(nc3ccc(O)cc13)-c1cc3c(c(=O)n1C2)COC(=O)[C@]3(O)CC` + CN1CCN(c2cc(C(=O)Nc3cc4cc(-c5cnn(C)c5)ccc4cn3)ccn2)CC1, the concentration for half-maximal inhibition (IC50) by setting is: under setting [1], 22.6 nM; under setting [2], 14.1 nM; under setting [3], below 3.16 nM; under setting [4], below 3.16 nM; under setting [5], below 3.16 nM; under setting [6], below 3.16 nM. Moreover, the viability, T/C (second compound 0.0316 µM, first compound 0.00316 µM) was 82.2%; the viability, T/C (second compound 0.0316 µM, first compound 0.01 µM) was 73.1%; the viability, T/C under setting [7] is 39.9%; the viability, T/C under setting [8] was 22.3%; the viability, T/C under setting [9] was 19.1%; the viability, T/C under setting [10] was 14.1%. Moreover, the viability, T/C is, setting by setting: (second compound 0.1 µM, first compound 0.00316 µM) 66.9%; (second compound 0.1 µM, first compound 0.01 µM) 58.6%; under setting [11], 31.4%; under setting [12], 17.5%; under setting [13], 14.3%; under setting [14], 8.76%. Moreover, the viability, T/C is, setting by setting: (second compound 0.316 µM, first compound 0.00316 µM) 17.9%; (second compound 0.316 µM, first compound 0.01 µM) 19%; under setting [15], 14.4%; under setting [16], 8.65%; under setting [17], 2.67%; under setting [18], 1.34%. Moreover, the viability, T/C by setting is: (second compound 1 µM, first compound 0.00316 µM) 1.11%; (second compound 1 µM, first compound 0.01 µM) 3.1%; under setting [19], 1.69%; under setting [20], 0.66%; under setting [21], 1.14%; under setting [22], 1.75%. Further, the viability, T/C is, setting by setting: (second compound 3.16 µM, first compound 0.00316 µM) 0.95%; (second compound 3.16 µM, first compound 0.01 µM) 2.49%; under setting [23], 1.5%; under setting [24], 1.25%; under setting [25], 2.1%; under setting [26], 1.56%. Moreover, the viability, T/C is 0.8% (second compound 10 µM, first compound 0.00316 µM); 1.71% (second compound 10 µM, first compound 0.01 µM); 0.41% under setting [27]; 1.3% under setting [28]; 0.67% under setting [29]; 0.26% under setting [30].
As for `COc1cccc2c1C(=O)c1c(O)c3c(c(O)c1C2=O)CC(O)(C(=O)CO)CC3OC1CC(N)C(O)C(C)O1` (centres undefined), the viability, T/C is 127% (compound 0.0316 µM); 76.1% (compound 0.1 µM); 20.6% (compound 0.316 µM); 0.4% (compound 1 µM); 1.81% (compound 3.16 µM); 2.31% (compound 10 µM). Besides, the half-inhibitory concentration (IC50) (curve of compound) was 171 nM.
For the molecule `COC1C=CCC(C)C(C)S(=O)(=O)NC(=O)c2ccc3c(c2)N(CC2CCC21)CC1(CCCc2cc(Cl)ccc21)CO3` (centres undefined), the viability, T/C is 83.5% and 117% (compound 0.0316 µM); 90% and 103% (compound 0.1 µM); 88.2% and 101% (compound 0.316 µM); 85.8% and 84.1% (compound 1 µM); 82.9% and 69.2% (compound 3.16 µM); 3.82% and 5.57% (compound 10 µM). The IC50 (curve of compound) is 5110 nM and 4150 nM.
For `CCc1c2c(nc3ccc(O)cc13)-c1cc3c(c(=O)n1C2)COC(=O)[C@]3(O)CC`, the viability, T/C is, setting by setting: (compound 0.00316 µM) 115% and 111%; (compound 0.01 µM) 95.3% and 79.7%; (compound 0.0316 µM) 66.4% and 56.8%; (compound 0.1 µM) 30.3% and 24.5%; (compound 0.316 µM) 26% and 21.8%; (compound 1 µM) 21.6% and 16.9%. Also, for the setting “curve of compound”, the half-inhibitory concentration (IC50) was 53.4 nM and 34.3 nM.
As to `CC1(C)CCC(CN2CCN(c3ccc(C(=O)NS(=O)(=O)c4ccc(NCC5CCOCC5)c([N+](=O)[O-])c4)c(Oc4cnc5[nH]ccc5c4)c3)CC2)=C(c2ccc(Cl)cc2)C1` + CN1CCN(c2cc(C(=O)Nc3cc4cc(-c5cnn(C)c5)ccc4cn3)ccn2)CC1, the half-inhibitory concentration (IC50) by setting is: under setting [1], 5780 nM; under setting [2], 5350 nM; under setting [3], below 31.6 nM; under setting [4], below 31.6 nM; under setting [5], below 31.6 nM; under setting [6], below 31.6 nM. Besides, the viability, T/C runs as follows: under setting [7], 92.5%; under setting [8], 93.2%; under setting [9], 94.6%; under setting [10], 92.1%; under setting [31], 104%; under setting [32], 8.6%. Also, the viability, T/C runs as follows: under setting [11], 82.4%; under setting [12], 76.3%; under setting [13], 87.6%; under setting [14], 94.5%; under setting [33], 101%; under setting [34], 4.42%. Also, the viability, T/C reads like this: under setting [15], 30.1%; under setting [16], 32.8%; under setting [17], 23.6%; under setting [18], 30.9%; under setting [35], 25.3%; under setting [36], 2.48%. Also, the viability, T/C under setting [19] was 0.62%; the viability, T/C under setting [20] is 0.92%; the viability, T/C under setting [21] is 0.31%; the viability, T/C under setting [22] is 0.75%; the viability, T/C under setting [37] was 1.8%; the viability, T/C under setting [38] was 0.48%. Moreover, the viability, T/C was 1.95% under setting [23]; 0.91% under setting [24]; 1.71% under setting [25]; 1.07% under setting [26]; 1.36% under setting [39]; 0.41% under setting [40]. The viability, T/C runs as follows: under setting [27], 0.95%; under setting [28], 1.04%; under setting [29], 1.34%; under setting [30], 0.91%; under setting [41], 0.55%; under setting [42], 0.2%.
Turning to `Nc1ccccc1NC(=O)c1ccc(CNC(=O)OCc2cccnc2)cc1` + CNC(=O)c1ccc(Nc2nc(OC3CCCC3)c3c(-c4ccc5nc(C)oc5c4)c[nH]c3n2)c(OC)c1, the concentration for half-maximal inhibition (IC50) is 3050 nM under setting [1]; 2560 nM under setting [2]; 1510 nM under setting [3]; 31.6 nM under setting [4]; below 31.6 nM under setting [5]; below 31.6 nM under setting [6]. Also, the viability, T/C by setting is: under setting [7], 106%; under setting [8], 107%; under setting [9], 93.3%; under setting [10], 92.9%; under setting [31], 48%; under setting [32], 11%. Also, the viability, T/C is, setting by setting: under setting [11], 91.9%; under setting [12], 96.8%; under setting [13], 88%; under setting [14], 104%; under setting [33], 39.8%; under setting [34], 4.98%. The viability, T/C was 53.6% under setting [15]; 60.2% under setting [16]; 64.2% under setting [17]; 82.2% under setting [18]; 23% under setting [35]; 3.58% under setting [36]. Besides, the viability, T/C under setting [19] is 37.9%; the viability, T/C under setting [20] was 38.8%; the viability, T/C under setting [21] was 47.7%; the viability, T/C under setting [22] is 54.1%; the viability, T/C under setting [37] is 16.4%; the viability, T/C under setting [38] is 1.52%. The viability, T/C is, setting by setting: under setting [23], 33.7%; under setting [24], 38.2%; under setting [25], 39%; under setting [26], 41.2%; under setting [39], 9.98%; under setting [40], 1.71%. Also, the viability, T/C is 38.3% under setting [27]; 32.1% under setting [28]; 35.7% under setting [29]; 35.3% under setting [30]; 10.1% under setting [41]; 0.98% under setting [42].
As for `Cn1ncnc1[C@H]1c2n[nH]c(=O)c3cc(F)cc(c23)N[C@@H]1c1ccc(F)cc1`, the viability, T/C is 99.8% and 98.2% (compound 0.000316 µM); 73.1% and 89.7% (compound 0.001 µM); 109% and 110% (compound 0.00316 µM); 100% and 103% (compound 0.01 µM); 115% and 127% (compound 0.0316 µM); 121% and 134% (compound 0.1 µM). The concentration for half-maximal inhibition (IC50) (curve of compound) is above 100 nM.

These data come from PubChem BioAssay AID2060625 (Molecular Pharmacology Branch, DTP, NCI, 2025).
